What was measured:
Caspase-1 [1] = target: T1, Caspase-1 (Homo sapiens (Human), UniProt P29466); assay: Caspase-1 Inhibitor Drug Screening Kit, fluorometric (AFC liberation); type: biochemical; conditions: 30-minute incubation at 37° C.; approximations of the average values; read-out: Caspase enzymatic activity, IC50 (uM) Caspase 1
Target sequence in this assay (P29466 120-404): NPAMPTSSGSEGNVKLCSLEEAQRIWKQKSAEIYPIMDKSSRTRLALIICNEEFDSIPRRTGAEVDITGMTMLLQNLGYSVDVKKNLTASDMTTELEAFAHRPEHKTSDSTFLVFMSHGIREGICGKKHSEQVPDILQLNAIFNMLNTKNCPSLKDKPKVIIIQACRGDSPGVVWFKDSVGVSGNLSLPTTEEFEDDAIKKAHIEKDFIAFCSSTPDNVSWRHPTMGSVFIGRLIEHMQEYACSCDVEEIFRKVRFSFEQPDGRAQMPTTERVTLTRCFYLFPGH
Procedure: (§1) The level of inhibition of caspase-1, -3, -5, -7, -9 activity was determined by comparison of the relative fluorescence intensity in samples with or without the compound.

Caspase-3 [2] = target: T2, Caspase-3 (Homo sapiens (Human), UniProt P42574); assay: Caspase-3 Inhibitor Drug Screening Kit, fluorometric (AFC liberation); type: biochemical
Target sequence in this assay (P42574 29-277): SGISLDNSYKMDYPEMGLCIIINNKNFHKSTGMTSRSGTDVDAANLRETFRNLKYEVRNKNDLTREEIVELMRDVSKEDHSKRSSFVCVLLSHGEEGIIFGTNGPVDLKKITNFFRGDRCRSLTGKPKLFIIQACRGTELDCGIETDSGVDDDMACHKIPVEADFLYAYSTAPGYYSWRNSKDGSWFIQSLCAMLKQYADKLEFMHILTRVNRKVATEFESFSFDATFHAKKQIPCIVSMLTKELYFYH
Procedure: as §1

Caspase-7 [3] = target: T3, Caspase-7 (Homo sapiens (Human), UniProt P55210); assay: Caspase-7 Inhibitor Drug Screening Kit, fluorometric (AFC liberation); type: biochemical; conditions: 30-minute incubation at 37° C.; approximations of the average values; read-out: Caspase enzymatic activity, IC50 (uM) Caspase 7
Target sequence in this assay (P55210 whole entry): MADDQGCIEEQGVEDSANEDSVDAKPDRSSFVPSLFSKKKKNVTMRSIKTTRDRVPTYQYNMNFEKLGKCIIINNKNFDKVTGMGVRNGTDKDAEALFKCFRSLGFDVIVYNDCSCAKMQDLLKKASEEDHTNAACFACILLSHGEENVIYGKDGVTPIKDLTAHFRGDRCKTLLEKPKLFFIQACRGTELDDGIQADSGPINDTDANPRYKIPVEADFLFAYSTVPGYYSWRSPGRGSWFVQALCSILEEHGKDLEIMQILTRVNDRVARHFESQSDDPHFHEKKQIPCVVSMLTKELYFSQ
Procedure: as §1

[4] = test system: proteolytic cleavage of PARP (poly ADP-ribose polymerase) in Hela cells; assay: Inhibition of staurosporine-induced PARP cleavage in live Hela cells; type: cell-based
Summary of the method: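 HeLa cells in 96 well plates were exposed for 4 hours to the apoptosis inducer staurosporine with or without test compound. Fixed cells were stained with a fluorescein-labeled anti-cleaved PARP antibody and counterstained with Hoechst33342. Cellomics imaging gave the fraction of nuclei positive for cleaved PARP, and inhibition was computed relative to staurosporine-only treatment.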

Caspase-6 = Caspase-6 (Homo sapiens (Human), UniProt P55212); assay: Fluorometric enzymatic assay, active recombinant Caspase-6; type: biochemical; conditions: 10-point titration 0.1 nM to 3.3 μM, 30-minute incubation at 37° C.; read-out: IC50 values (μM) Caspase-6
Caspase-6, sequence (P55212 24-179): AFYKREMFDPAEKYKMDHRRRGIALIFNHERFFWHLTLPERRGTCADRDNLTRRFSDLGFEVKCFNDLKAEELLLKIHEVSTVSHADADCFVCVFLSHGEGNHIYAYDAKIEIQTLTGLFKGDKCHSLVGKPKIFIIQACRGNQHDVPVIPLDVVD
Caspase-6, sequence (P55212 194-293): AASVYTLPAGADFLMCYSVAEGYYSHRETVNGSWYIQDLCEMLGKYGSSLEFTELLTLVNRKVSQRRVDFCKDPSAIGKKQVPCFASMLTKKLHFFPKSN
Procedure: . In brief, each compound was serially diluted for a final test concentration range of 0.1 nM to 3.3 μM (10-point titration). Each active recombinant Caspase (Active Recombinant Caspase Set IV™ (BioVision, Cat# K233-10-25)) was added to the respective wells of the 96-well High Efficiency™ plates (Molecular Devices, Cat#75-000-0005), followed by the addition of the diluted test compounds. DMSO (Final=1%) or Z-VAD-FMK (Caspase-Family Inhibitor, Z-VAD-FMK (BioVision, Cat#1010-100), Final concentration=20 uM) was added in the designated wells as a background control or positive inhibitor control respectively. Each dilution of the test compounds was tested in duplicates, whereas the DMSO or Z-VAD-FMK controls were tested in triplicates. The synthetic peptide substrate specific for each Caspase (BioVision) was then added to the respective wells, which when cleaved by the active caspase releases free AFC that can be quantified by fluorometry. After a 30-minute incubation at 37° C., the plates were read using the Flexstation 3™ with a 400 nm excitation filter and a 505 nm emission filter (cutoff at 495 nm). The inhibition efficiency and the IC50 values of the test compounds were then determined by comparing the fluorescence intensity (FI) of the test compounds with that of the DMSO control.
The SoftMax Pro Software™ (v5.2 rev C, Molecular Devices) was used for data analysis. The % Inhibition is calculated by: % Inhibition=[FI(DMSO)−FI(test sample)/FI(DMSO)]×100. The % Inhibition vs. Log(concentration) was plotted, and the curve was fitted using the 5-parameter fit of the software.

Caspase-1 [5] = target: T1, Caspase-1; assay: Fluorometric enzymatic assay, active recombinant Caspase-1
Target sequence in this assay (P29466 whole entry, looked up): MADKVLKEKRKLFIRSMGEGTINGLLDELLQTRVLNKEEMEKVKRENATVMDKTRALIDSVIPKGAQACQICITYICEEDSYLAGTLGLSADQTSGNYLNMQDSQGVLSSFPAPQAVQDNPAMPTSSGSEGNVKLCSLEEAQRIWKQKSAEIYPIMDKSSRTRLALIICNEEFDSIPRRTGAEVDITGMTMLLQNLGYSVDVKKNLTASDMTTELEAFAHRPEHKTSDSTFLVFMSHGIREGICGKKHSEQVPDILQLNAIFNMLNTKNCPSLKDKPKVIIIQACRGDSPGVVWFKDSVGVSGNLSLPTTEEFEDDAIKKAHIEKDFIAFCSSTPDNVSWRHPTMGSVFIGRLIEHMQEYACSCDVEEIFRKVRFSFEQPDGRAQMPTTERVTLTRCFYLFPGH
Target sequence in this assay (P29466 whole entry, looked up): as above
Procedure: (§2) Each dilution of the test compounds was tested in duplicates, whereas the DMSO or Z-VAD-FMK controls were tested in triplicates. […] The inhibition efficiency and the IC50 values of the test compounds were then determined by comparing the fluorescence intensity (FI) of the test compounds with that of the DMSO control.

Caspase-3 [6] = target: T2, Caspase-3; assay: Fluorometric enzymatic assay, active recombinant Caspase-3
Target sequence in this assay (P42574 29-175): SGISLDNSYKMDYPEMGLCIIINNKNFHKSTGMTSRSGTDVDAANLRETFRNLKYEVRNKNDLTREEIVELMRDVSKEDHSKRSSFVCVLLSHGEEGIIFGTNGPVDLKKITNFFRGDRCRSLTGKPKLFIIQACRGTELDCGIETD
Target sequence in this assay (P42574 176-277): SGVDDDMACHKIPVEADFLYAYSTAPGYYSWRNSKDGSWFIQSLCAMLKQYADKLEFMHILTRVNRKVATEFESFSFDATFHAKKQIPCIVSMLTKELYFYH
Procedure: as §2

Caspase-4 = Caspase-4 (Homo sapiens (Human), UniProt P49662); assay: Fluorometric enzymatic assay, active recombinant Caspase-4
Caspase-4, sequence (P49662 81-270): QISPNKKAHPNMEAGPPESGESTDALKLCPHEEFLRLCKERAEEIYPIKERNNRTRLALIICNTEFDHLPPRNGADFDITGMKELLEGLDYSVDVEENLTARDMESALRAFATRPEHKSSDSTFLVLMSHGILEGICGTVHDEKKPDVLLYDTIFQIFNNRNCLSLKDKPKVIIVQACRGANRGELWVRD
Caspase-4, sequence (P49662 290-377): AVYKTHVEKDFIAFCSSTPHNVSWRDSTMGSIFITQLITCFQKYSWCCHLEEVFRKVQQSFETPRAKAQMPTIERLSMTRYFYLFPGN
Procedure: as §2

Caspase-7 [7] = target: T3, Caspase-7; assay: Fluorometric enzymatic assay, active recombinant Caspase-7
Target sequence in this assay (P55210 whole entry, looked up): as the sequence (P55210 whole entry) above
Target sequence in this assay (P55210 whole entry, looked up): as the sequence (P55210 whole entry) above
Procedure: as §2

Caspase-9 = Caspase-9 (Homo sapiens (Human), UniProt P55211); assay: Fluorometric enzymatic assay, active recombinant Caspase-9; conditions: read-out: IC50 values (μM) Caspase-9; 10-point titration 0.1 nM to 3.3 μM, 30-minute incubation at 37° C.
Caspase-9, sequence (P55211 whole entry, looked up, change not shown): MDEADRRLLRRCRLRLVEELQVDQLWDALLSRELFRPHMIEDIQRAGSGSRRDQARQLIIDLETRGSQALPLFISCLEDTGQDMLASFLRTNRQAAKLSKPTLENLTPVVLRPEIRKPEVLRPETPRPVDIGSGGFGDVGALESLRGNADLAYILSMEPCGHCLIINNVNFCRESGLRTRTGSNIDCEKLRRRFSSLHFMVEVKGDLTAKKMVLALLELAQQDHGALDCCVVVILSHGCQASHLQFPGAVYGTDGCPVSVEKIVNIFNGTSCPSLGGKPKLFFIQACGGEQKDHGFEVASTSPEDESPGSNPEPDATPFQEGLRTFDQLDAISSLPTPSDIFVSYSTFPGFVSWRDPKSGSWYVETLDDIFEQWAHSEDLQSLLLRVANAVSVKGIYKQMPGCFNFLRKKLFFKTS
Caspase-9, sequence (P55211 whole entry, looked up, change not shown): as above
Procedure: as §2

Caspase-10 = Caspase-10 (Homo sapiens (Human), UniProt Q92851); assay: Fluorometric enzymatic assay, active recombinant Caspase-10; conditions: read-out: IC50 values (μM) Caspase-10; 10-point titration 0.1 nM to 3.3 μM, 30-minute incubation at 37° C.
Caspase-10, sequence (Q92851 220-415): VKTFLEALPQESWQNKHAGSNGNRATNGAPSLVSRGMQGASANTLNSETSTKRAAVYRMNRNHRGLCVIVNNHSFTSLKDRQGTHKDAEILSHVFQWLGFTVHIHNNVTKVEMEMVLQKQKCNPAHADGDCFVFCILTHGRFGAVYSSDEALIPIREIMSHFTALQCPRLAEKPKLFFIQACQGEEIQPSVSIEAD
Caspase-10, sequence (Q92851 416-521): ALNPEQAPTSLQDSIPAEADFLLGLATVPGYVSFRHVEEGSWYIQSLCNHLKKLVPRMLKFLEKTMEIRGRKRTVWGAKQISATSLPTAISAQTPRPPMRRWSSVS
Procedure: as §2

CC(C)[C@H](NC(=O)[C@@H](NC(=O)[C@H](CC(=O)O)NC(=O)OCc1ccccc1)c1ccccc1)C(=O)N[C@H](/C=C/S(C)(=O)=O)CC(=O)O [Compound 53, Z-Asp-Phg-Val-Aspmethyl vinyl sulfone]
IC50 (Caspase-1 [1]): 2 µM | IC50 (Caspase-3 [2]; 30-minute incubation at 37° C., approximations of the average values, read-out: Caspase enzymatic activity, IC50 (uM) Caspase 3): 0.06 µM | selectivity of Caspase-3 over Caspase-7 based on IC50 values (Caspase-3 [2]; IC50 caspase-7 versus caspase-3): about 12 fold | IC50 (Caspase-3 [2]; read-out: IC50 caspase-3): 0.03 to 0.09 µM | IC50 (Caspase-7 [3]): 0.8 µM | effectivity in inhibiting PARP cleavage ([4]; Hela cells, staurosporine): highly effective relative to DEVD-fmk | inhibition at 50 µM ([4]; Homo sapiens, HeLa, 4 h, read-out: % inhibition of PARP cleavage at 50 uM compound, Hela cells, staurosporine 4 hours, 50 uM compound): > 50% | IC50 (Caspase-6): > 3.33 µM | inhibitory activity towards Caspase-1 (Caspase-1 [5]; FIG. 5): inhibitory activity | IC50 (Caspase-1 [5]; read-out: IC50 values (μM) Caspase-1, 10-point titration 0.1 nM to 3.3 μM, 30-minute incubation at 37° C.): 2.1 µM | inhibitory activity towards Caspase-3 (Caspase-3 [6]; FIG. 5): high inhibitory activity | IC50 (Caspase-3 [6]; read-out: IC50 values (μM) Caspase-3, 10-point titration 0.1 nM to 3.3 μM, 30-minute incubation at 37° C.): 0.09 µM | inhibitory activity towards Caspase-4 (Caspase-4; FIG. 5): inhibitory activity | IC50 (Caspase-4; read-out: IC50 values (μM) Caspase-4, 10-point titration 0.1 nM to 3.3 μM, 30-minute incubation at 37° C.): 2.8 µM | inhibitory activity towards Caspase-7 (Caspase-7 [7]; FIG. 5): high inhibitory activity | IC50 (Caspase-7 [7]; read-out: IC50 values (μM) Caspase-7, 10-point titration 0.1 nM to 3.3 μM, 30-minute incubation at 37° C.): 0.8 µM | IC50 (Caspase-9): > 3.33 µM | IC50 (Caspase-10): > 3.33 µM
